We go through three compounds from the NIST ThermoML archive (doi:10.1016/j.jct.2015.07.020).

By refractive index is commonly meant a measure of how strongly the sample bends light. By mass density is commonly meant mass per unit of volume.

Data set [1] is described as follows: refractive index (Na D-line) (dimensionless). The settings on record: 101.33 kPa, Liquid, Standard Abbe refractometry.
For data set [2] the following is noted: 101.33 kPa, Liquid, Vibrating tube method.

SMILES strings stand for the structures. ± gives the expanded uncertainty stated by the source.

On to `CCc1ccccc1` [ethylbenzene], for which, in data set [1] (298.15 K), the refractive index was 1.493 ± 0.0005. Moreover, the mass density in data set [2] (298.15 K) is 862.51 ± 0.3 kg/m3.
Regarding `CC(C)c1ccccc1` [isopropylbenzene], the refractive index in data set [1] (293.15 K) amounted to 1.4912 ± 0.0005. In addition, in data set [2] (293.15 K), the mass density was determined as 863.82 ± 0.3 kg/m3.
In the case of `O` [water], the refractive index in data set [1] (298.15 K) was found to be 1.3324 ± 0.0005.
